What follows are compounds tested on Endogenous Huntingtin Protein (capture with MW1 (expanded polyglutamine) or MAB2166 antibody) (assay: Endogenous Huntingtin Protein Assay (ELISA-based Meso Scale Discovery electrochemiluminescence assay)). Conditions: MSD electrochemiluminescence platform.
Format: cell-based
Procedure, shortened: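 MSD electrochemiluminescence sandwich immunoassay: plates coated with 1 μg/mL MW1 or MAB2166 capture antibody, samples incubated overnight at 4 °C. Detection with rabbit monoclonal #5656S then SULFO-TAG anti-rabbit (each 0.25 μg/mL, 1 h RT).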
For `Cn1nc2cc(-c3cnc(-c4cnc(N5CCN[C@@H](C6CC6)C5)nn4)c(O)c3)cnc2n1` [Compound 157, 2-{3-[(3S)-3-cyclopropylpiperazin-1-yl]-1,2,4-triazin-6-yl}-5-(2-methyl-2H-[1,2,3]triazolo[4,5-b]pyridin-6-yl)pyridin-3-ol], the IC50 was ≤ 100 nM.
With “5-(8-ethyl-2-methylimidazo[1,2-b]pyridazin-6-yl)-2-(6-{[(3R,4S)-3-fluoro-2,2,6,6-tetramethylpiperidin-4-yl]oxy}pyridazin-3-yl)pyridin-3-ol and 5-(8-ethyl-2-methylimidazo[1,2-b]pyridazin-6-yl)-2-(6-{[(3S,4R)-3-fluoro-2,2,6,6-tetramethylpiperidin-4-yl]oxy}pyridazin-3-yl)pyridin-3-ol [Compound 60]” the IC50 was ≤ 100 nM.
In the case of `[2H]C([2H])([2H])n1cc(-c2cnc(-c3cnc(N4CCC(NC(C)(C)C)C4)nn3)c(O)c2)cn1` (stereo not drawn) [Compound 137, 2-{3-[3-(tert-butylamino)pyrrolidin-1-yl]-1,2,4-triazin-6-yl}-5-[1-(^2H3)methyl-1H-pyrazol-4-yl]pyridin-3-ol], the IC50 is reported as ≤ 100 nM.
For `C[C@@H]1CN(c2ccc(-c3ncc(-c4ccc5n[nH]cc5c4)cc3O)nn2)C[C@H](C)N1` [Compound 131, 2-{6-[(3R,5S)-3,5-dimethylpiperazin-1-yl]pyridazin-3-yl}-5-(2H-indazol-5-yl)pyridin-3-ol and 2-{6-[(3S,5R)-3,5-dimethylpiperazin-1-yl]pyridazin-3-yl}-5-(2H-indazol-5-yl)pyridin-3-ol], the IC50 was 500 to 1000 nM.
“2-(6-{[(3R,4S)-3-fluoro-2,2,6,6-tetramethylpiperidin-4-yl]oxy}pyridazin-3-yl)-5-(imidazo[1,2-a]pyrazin-6-yl)pyridin-3-ol and 2-(6-{[(3S,4R)-3-fluoro-2,2,6,6-tetramethylpiperidin-4-yl]oxy}pyridazin-3-yl)-5-(imidazo[1,2-a]pyrazin-6-yl)pyridin-3-ol [Compound 66]” was tested, and the IC50 was 100 to 500 nM.
With `CCC1CN(c2ccc(-c3ncc(-c4cc(F)c5nn(C)cc5c4)cc3O)nn2)CCN1` (stereo not drawn) [Compound 120, 2-[6-(3-ethylpiperazin-1-yl)pyridazin-3-yl]-5-(7-fluoro-2-methyl-2H-indazol-5-yl)pyridin-3-ol] the IC50 was ≤ 100 nM.
`COc1cc(-c2cnc(-c3cnc(N4CC[C@@H](NC(C)(C)C)C4)nn3)c(O)c2)cc2cn(C)nc12` [Compound 146, 2-{3-[(3R)-3-(tert-butylamino)pyrrolidin-1-yl]-1,2,4-triazin-6-yl}-5-(7-methoxy-2-methyl-2H-indazol-5-yl)pyridin-3-ol] was tested, and the IC50 was ≤ 100 nM.
In the case of “2-(6-{[(3R,4R)-3-fluoro-2,2,6,6-tetramethylpiperidin-4-yl]amino}pyridazin-3-yl)-5-[1-(^2H3)methyl-1H-pyrazol-4-yl]pyridin-3-ol or 2-(6-{[(3S,4S)-3-fluoro-2,2,6,6-tetramethylpiperidin-4-yl]amino}pyridazin-3-yl)-5-[1-(^2H3)methyl-1H-pyrazol-4-yl]pyridin-3-ol [Compound 19]”, the IC50 is reported as ≤ 100 nM.
Compound `CC1CN(c2ccc(-c3ncc(NCc4cccnc4)cc3O)nn2)CCN1` (stereo not drawn) [Compound 110, 2-[6-(3-methylpiperazin-1-yl)pyridazin-3-yl]-5-{[(pyridin-3-yl)methyl]amino}pyridin-3-ol] has an IC50 of 500 to 1000 nM.
In the case of “2-{6-[(3S)-3-(propan-2-yl)piperazin-1-yl]pyridazin-3-yl}-5-(1H-pyrazol-4-yl)pyridin-3-ol and 2-{6-[(3R)-3-(propan-2-yl)piperazin-1-yl]pyridazin-3-yl}-5-(1H-pyrazol-4-yl)pyridin-3-ol [Compound 121]”, the IC50 is reported as ≤ 100 nM.
In the case of `Cc1cn2cc(-c3cnc(-c4ccc(N5CCC6(CCN6)C5)nn4)c(O)c3)ccc2n1` (stereo not drawn) [Compound 107, 2-[6-(1,6-diazaspiro[3.4]octan-6-yl)pyridazin-3-yl]-5-(2-methylimidazo[1,2-a]pyridin-6-yl)pyridin-3-ol], the IC50 is reported as ≤ 100 nM.
`CCc1cc(-c2cnc(-c3cnc(N4CC[C@@H](NC(C)(C)C)C4)nn3)c(O)c2)cn2cc(C)nc12` [Compound 148, 2-{3-[(3R)-3-(tert-butylamino)pyrrolidin-1-yl]-1,2,4-triazin-6-yl}-5-(8-ethyl-2-methylimidazo[1,2-a]pyridin-6-yl)pyridin-3-ol] was tested, and the IC50 was 100 to 500 nM.
For “5-(2,8-dimethylimidazo[1,2-b]pyridazin-6-yl)-2-(6-{[(3R,4S)-3-fluoro-2,2,6,6-tetramethylpiperidin-4-yl]oxy}pyridazin-3-yl)pyridin-3-ol and 5-(2,8-dimethylimidazo[1,2-b]pyridazin-6-yl)-2-(6-{[(3S,4R)-3-fluoro-2,2,6,6-tetramethylpiperidin-4-yl]oxy}pyridazin-3-yl)pyridin-3-ol [Compound 47]”, the IC50 was ≤ 100 nM.
“2-(6-{[(3R,4S)-3-fluoro-2,2,6,6-tetramethylpiperidin-4-yl]oxy}pyridazin-3-yl)-5-(4-methyl-1H-imidazol-1-yl)pyridin-3-ol and 2-(6-{[(3S,4R)-3-fluoro-2,2,6,6-tetramethylpiperidin-4-yl]oxy}pyridazin-3-yl)-5-(4-methyl-1H-imidazol-1-yl)pyridin-3-ol [Compound 41]” gave an IC50 of 100 to 500 nM.
In the case of `CC1(C)CC(Oc2ccc(-c3ncc(-n4nccn4)cc3O)nn2)CC(C)(C)N1` [Compound 20, 2-{6-[(2,2,6,6-tetramethylpiperidin-4-yl)oxy]pyridazin-3-yl}-5-(2H-1,2,3-triazol-2-yl)pyridin-3-ol], the IC50 is reported as ≤ 100 nM.
`Cn1cc2cc(-c3cnc(-c4ccc(O[C@H]5CC(C)(C)NC(C)(C)[C@H]5F)nn4)c(O)c3)cc(F)c2n1` (single isomer, unassigned) [Compound 35, 5-(7-fluoro-2-methyl-2H-indazol-5-yl)-2-(6-{[(3R,4S)-3-fluoro-2,2,6,6-tetramethylpiperidin-4-yl]oxy}pyridazin-3-yl)pyridin-3-ol or 5-(7-fluoro-2-methyl-2H-indazol-5-yl)-2-(6-{[(3S,4R)-3-fluoro-2,2,6,6-tetramethylpiperidin-4-yl]oxy}pyridazin-3-yl)pyridin-3-ol] was tested, and the IC50 was ≤ 100 nM.
With `C[C@@H]1CN(c2cnc(-c3ncc(-c4cc(F)c5nn(C)cc5c4)cc3O)nn2)C[C@H](C)N1` [Compound 164, 2-{6-[(3R,5S)-3,5-dimethylpiperazin-1-yl]-1,2,4-triazin-3-yl}-5-(7-fluoro-2-methyl-2H-indazol-5-yl)pyridin-3-ol and 2-{6-[(3S,5R)-3,5-dimethylpiperazin-1-yl]-1,2,4-triazin-3-yl}-5-(7-fluoro-2-methyl-2H-indazol-5-yl)pyridin-3-ol] the IC50 was 100 to 500 nM.
With `Cn1ccc(-c2cnc(-c3ccc(O[C@H]4CC(C)(C)NC(C)(C)[C@H]4F)nn3)c(O)c2)n1` (single isomer, unassigned) [Compound 7, 2-(6-{[(3R,4S)-3-fluoro-2,2,6,6-tetramethylpiperidin-4-yl]oxy}pyridazin-3-yl)-5-(1-methyl-1H-pyrazol-3-yl)pyridin-3-ol or 2-(6-{[(3S,4R)-3-fluoro-2,2,6,6-tetramethylpiperidin-4-yl]oxy}pyridazin-3-yl)-5-(1-methyl-1H-pyrazol-3-yl)pyridin-3-ol] the IC50 was 100 to 500 nM.
`CC1CN(c2ccc(-c3ncc(NCc4cnc5ccccc5c4)cc3O)nn2)CCN1` (stereo not drawn) [Compound 112, 2-[6-(3-methylpiperazin-1-yl)pyridazin-3-yl]-5-{[(quinolin-3-yl)methyl]amino}pyridin-3-ol] gave an IC50 of 500 to 1000 nM.
`COc1cc(-c2cnc(-c3ccc(N4C[C@@H](C)N[C@@H](C)C4)nn3)c(O)c2)ccn1` [Compound 96, 6-{6-[(3R,5S)-3,5-dimethylpiperazin-1-yl]pyridazin-3-yl}-2′-methoxy[3,4′-bipyridin]-5-ol and 6-{6-[(3S,5R)-3,5-dimethylpiperazin-1-yl]pyridazin-3-yl}-2′-methoxy[3,4′-bipyridin]-5-ol] showed an IC50 of 100 to 500 nM.
In the case of `Cc1cn2cc(-c3cnc(-c4cnc(N5CCN(C)CC5)nn4)c(O)c3)cc(C)c2n1` [Compound 153, 5-(2,8-dimethylimidazo[1,2-a]pyridin-6-yl)-2-[3-(4-methylpiperazin-1-yl)-1,2,4-triazin-6-yl]pyridin-3-ol], the IC50 is reported as ≤ 100 nM.
`CN(c1ccc(-c2ncc(-c3ncco3)cc2O)nn1)C1CC(C)(C)NC(C)(C)C1` [Compound 14, 2-{6-[methyl(2,2,6,6-tetramethylpiperidin-4-yl)amino]pyridazin-3-yl}-5-(1,3-oxazol-2-yl)pyridin-3-ol] was tested, and the IC50 was ≤ 100 nM.
For `CC1(C)C[C@H](Oc2ccc(-c3ncc(-c4cn[nH]c4)cc3O)nn2)[C@H](F)C(C)(C)N1[O]` [Compound 102, [(3R,4S)-3-fluoro-4-({6-[3-hydroxy-5-(1H-pyrazol-4-yl)pyridin-2-yl]pyridazin-3-yl}oxy)-2,2,6,6-tetramethylpiperidin-1-yl]oxidanyl], the IC50 was 500 to 1000 nM.
For `[2H]C([2H])([2H])n1cc(-c2cnc(-c3ccc(OC4CC(C)(C)NC5(CC5)C4)nn3)c(O)c2)cn1` (stereo not drawn) [Compound 75, 2-{6-[(5,5-dimethyl-4-azaspiro[2.5]octan-7-yl)oxy]pyridazin-3-yl}-5-[1-(^2H3)methyl-1H-pyrazol-4-yl]pyridin-3-ol], the IC50 was ≤ 100 nM.
In the case of `CC1CN(c2ccc(-c3ncc(NCc4ccccn4)cc3O)nn2)CCN1` (stereo not drawn) [Compound 109, 2-[6-(3-methylpiperazin-1-yl)pyridazin-3-yl]-5-{[(pyridin-2-yl)methyl]amino}pyridin-3-ol], the IC50 is reported as 500 to 1000 nM.
`Cn1cc2cc(-c3cnc(-c4ccc(N5CC(C)(C)NC(C)(C)C5)nn4)c(O)c3)cc(F)c2n1` [Compound 89, 5-(7-fluoro-2-methyl-2H-indazol-5-yl)-2-[6-(3,3,5,5-tetramethylpiperazin-1-yl)pyridazin-3-yl]pyridin-3-ol] was tested, and the IC50 was ≤ 100 nM.
With “6-[6-(6-{[(3R,4S)-3-fluoro-2,2,6,6-tetramethylpiperidin-4-yl]oxy}pyridazin-3-yl)-5-hydroxypyridin-3-yl]-2-methylimidazo[1,2-a]pyridine-8-carbonitrile and 6-[6-(6-{[(3S,4R)-3-fluoro-2,2,6,6-tetramethylpiperidin-4-yl]oxy}pyridazin-3-yl)-5-hydroxypyridin-3-yl]-2-methylimidazo[1,2-a]pyridine-8-carbonitrile [Compound 59]” the IC50 was ≤ 100 nM.
